# Measurements taken from patent US20080113899A1, “Iron Supplement and Utilization of the Same” (GEKKEIKAN SAKE CO., LTD., priority 2004, published 2008).
# Read-outs that look alike come from different tables or passages of the source. Marks after values point to notes of the source that are not given here. Non-standard residues stand in square brackets, D forms with d. Residues, ends and D or L forms follow the SMILES beside them. ξ: configuration not given here. ξOrn(N(OH)Ac) = CC(=O)N(O)CCCC(N)C(=O)O
# Key:
# [1] = Thermal and pH stabilities of ferrichrysin (absorbance at 430 nm before/after sterilization); format: physicochemical; settings: 0.25 mg/ml; for Absorbance at 430 nm after sterilization: 20 min, 120° C., 200 kPa
# Protocol: Ferrichrysin is known to show an absorption maximum at 430 nm. Ferrichrysin was tested for pH and thermal stabilities utilizing this property.
# Ferrichrysin prepared from a rice koji extract in the manner as described above was dissolved in ultrapure water to a concentration of 2.5 mg/ml. The resulting solution was subsequently diluted to give a ferrichrysin concentration of 0.25 mg/ml using each of the following buffers. A glycine-hydrochloric acid buffer was used for a pH 2 or pH 3 buffer; a acetate buffer was used for a pH 4 or pH 5 buffer; a phosphate buffer was used for a pH 6 or pH 7 buffer; a tris-hydrochloric acid buffer was used for a pH 8 buffer; and a glycine-sodium hydroxide buffer was used for a pH 9 or pH 10 buffer.
# Each ferrichrysin solution was placed in a screw-cap test tube, and then the test tube was sealed. The solution was subsequently sterilized by a process of steaming under pressure for 20 min at a temperature of 120° C. and a pressure of 200 kPa. The absorbance of each solution at 430 nm was measured prior to and after the sterilization.
# [2] = for Proportion of the iron concentration after the reaction to the initial iron concentration (1 mg/ml): tannic acid, 37° C., 3 hr, filtrate, cut-off 10000
# Protocol: (§1) Ferrichrysin was tested for its reactivity with tannic acid and phytic acid, the typical iron uptake inhibitor, so as to compare its reactivity with that of other iron compounds with these iron uptake inhibitor.
# (§2) A 0.6% tannic acid solution and a 0.6% phytic acid solution were also prepared. The pH of each of these solutions was adjusted with hydrochloric acid or sodium hydroxide to 2.0, 4.0, 6.0 or 8.0.
# (§3) The iron-compound solutions were mixed with each of the tannic acid and phytic acid solutions at a volume ratio of 1:9, and then the mixtures were incubated at 37° C. for 3 hr, so as to react the iron compounds with each of these iron uptake inhibitor. The resulting solutions were centrifuged at 15000 rpm for 5 min, and then the supernatant of each solution was ultrafiltrated using membranes having a molecular weight cut-off of 10000. The iron concentration in each filtrate was measured by atomic absorption.
# [3] = system: SD male rats having iron deficiency anemia; test: Measurement of iron concentration in the liver; format: in vivo, rat; settings: 3 weeks free feeding, food iron content 35 ppm; mean±SD of five rats
# Protocol: Rats of the control group were fed food 1 (ferric citrate) from the beginning, i.e. through to the end. At the end of the experiment, livers were removed after perfusion of saline into the portal vein to exclude the blood; they were weighed and freeze-dried. The dried liver was subsequently incinerated and subjected to atomic absorption, so as to measure the iron concentration in the liver. Further, the water content of the liver was calculated, and the concentration of iron stored in the liver of the body was determined based on the iron concentration in the dried liver and the water content of the liver.
# [4] = system: SD male rats having iron deficiency anemia; settings: rat, in vivo
# Source text: Fifteen four-week-old SD male rats were freely fed an iron-deficient food for 35 days to develop iron deficiency anemia with the average blood hemoglobin value reduced to 6.5 g/dl. Five four-week-old SD male rats as the control group were fed iron-containing food 1.
# The weight gain in each group is the mean±standard deviation value of the five rats in the group.
# [5] = for Proportion of the iron concentration after the reaction to the initial iron concentration (1 mg/ml): phytic acid, 37° C., 3 hr, filtrate, cut-off 10000
# Protocol: as §1, §2, §3
# [6] = system: SD male rats having iron deficiency anemia; test: Measurement of hemoglobin concentration in the blood; format: in vivo, rat; settings: mean±SD of five rats
# Source text: The rats in the control group were fed iron-containing food 1 (ferric citrate) during the study.
# [7] = system: SD male rats having iron deficiency anemia; test: Measurement of serum iron concentration; format: in vivo, rat; settings: 3 weeks free feeding, food iron content 35 ppm; mean±SD of five rats
# Protocol: Serum was prepared from the blood wholly exsanguinated from the rats of each group after the rats had been given their iron-containing food, so as to measure iron concentrations in the serums by a usual method.
# [8] = system: SD male rats having iron deficiency anemia; settings: rat, in vivo; remark: listed apart in the source
# Source text: Five four-week-old SD male rats as the control group were fed iron-containing food 1.
# The fifteen rats having iron deficiency anemia were subsequently divided into three groups, and were freely fed iron-containing foods 1, 2 and 3, respectively, for 3 weeks. As the iron source, iron-containing food 1 contains ferric citrate; iron-containing food 2 contains water-soluble heme iron; and iron-containing food 3 contains ferrichrysin.
# Measurements were made by a usual method of the concentrations of protein, ALT (alanine aminotransferase), AST (aspartate aminotransferase) and creatinine in the serums of the groups of rats which were fed iron-containing food 1 (ferric citrate), food 2 (heme iron) and food 3 (ferrichrysin) after the development of iron deficiency anemia, as well as the rats in the control group which were fed food 1 (ferric citrate) from the beginning.
# [9] = Solubility of ferrichrysin in water compared with other iron compounds; settings: for Precipitate: 0.1 g in 1 ml, 37° C., 90 min, centrifuged, visual
# Protocol: The solubility of ferrichrysin was compared with the solubilities of other iron compounds. Water-soluble heme iron, ferric citrate and ferrichrysin which were used in Example 1 were used as iron compounds. 0.1 g of each of these iron compounds was dissolved in 1 ml of each buffer having a pH of 2 or 7, and then the solutions were incubated at 37° C. for 90 min. A glycine/hydrochloric acid buffer was used as the pH 2 buffer, and a phosphate buffer was used as the pH 7 buffer. The concentration of buffer agent(s) in each buffer was adjusted to 0.1 mol/l. After being incubated, each buffer was centrifuged to visually confirm the presence or absence of precipitate. Further, the iron concentration in the supernatant of each buffer was measured by atomic absorption.
smiles,measurement,setting,value
"CC(=O)N([O-])CCCC1NC(=O)CNC(=O)C(CO)NC(=O)C(CO)NC(=O)C(CCCN([O-])C(C)=O)NC(=O)C(CCCN([O-])C(C)=O)NC1=O.[Fe+3] (stereo not drawn) [Ferrichrysin, ferrichrysin] (cyclo(G[ξOrn(N(OH)Ac)][ξOrn(N(OH)Ac)][ξOrn(N(OH)Ac)]SS); configuration not given here)",Absorbance at 430 nm before sterilization,[1]; pH 2.0,0.709
same,Absorbance at 430 nm after sterilization,[1]; pH 2.0,0.366
same,Absorbance at 430 nm before sterilization,[1]; pH 3.0,0.742
same,Absorbance at 430 nm after sterilization,[1]; pH 3.0,0.721
same,Absorbance at 430 nm before sterilization,[1]; pH 4.0,0.738
same,Absorbance at 430 nm after sterilization,[1]; pH 4.0,0.743
same,Absorbance at 430 nm before sterilization,[1]; pH 5.0,0.732
same,Absorbance at 430 nm after sterilization,[1]; pH 5.0,0.748
same,Absorbance at 430 nm before sterilization,[1]; pH 6.0,0.743
same,Absorbance at 430 nm after sterilization,[1]; pH 6.0,0.746
same,Absorbance at 430 nm before sterilization,[1]; pH 7.0,0.764
same,Absorbance at 430 nm after sterilization,[1]; pH 7.0,0.774
same,Absorbance at 430 nm before sterilization,[1]; pH 8.0,0.758
same,Absorbance at 430 nm after sterilization,[1]; pH 8.0,0.747
same,Absorbance at 430 nm before sterilization,[1]; pH 9.0,0.765
same,Absorbance at 430 nm after sterilization,[1]; pH 9.0,0.767
same,Absorbance at 430 nm before sterilization,[1]; pH 10.0,0.769
same,Absorbance at 430 nm after sterilization,[1]; pH 10.0,0.772
same,"Reactivity with iron-insolubilizing component, in words",[2]; pH 2,low reactivity
same,Proportion of the iron concentration after the reaction to the initial iron concentration (1 mg/ml),[2]; pH 2.0,80.5%
same,Proportion of the iron concentration after the reaction to the initial iron concentration (1 mg/ml),[2]; pH 4.0,71.8%
same,Proportion of the iron concentration after the reaction to the initial iron concentration (1 mg/ml),[2]; pH 6.0,76.1%
same,Proportion of the iron concentration after the reaction to the initial iron concentration (1 mg/ml),[2]; pH 8.0,81.9%
same,Iron concentration in the liver,[3],39.3 ± 7.6 ppm
same,Average food intake,[4],366.3 g/3 weeks
same,Body weight gain,[4],70.1 ± 8.3 g/3 weeks
same,"Reactivity with iron-insolubilizing component, in words",[5]; pH 2,low reactivity
same,Proportion of the iron concentration after the reaction to the initial iron concentration (1 mg/ml),[5]; pH 2.0,85.7%
same,Proportion of the iron concentration after the reaction to the initial iron concentration (1 mg/ml),[5]; pH 4.0,100.6%
same,Proportion of the iron concentration after the reaction to the initial iron concentration (1 mg/ml),[5]; pH 6.0,101.8%
same,Proportion of the iron concentration after the reaction to the initial iron concentration (1 mg/ml),[5]; pH 8.0,100.3%
same,"Hemoglobin concentration in the blood, after feeding iron-containing food","[6]; 3 weeks free feeding, food iron content 35 ppm",14.3 ± 0.3 g/dL
same,"Hemoglobin concentration in the blood, before feeding iron-containing food",[6]; baseline after 35 days iron-deficient food,6.4 ± 0.9 g/dL
same,Serum iron concentration after feeding iron-containing food,[7],116.7 ± 24.1 µg/dL
same,ALT,[8],17.7 ± 2.3^a Karmen
same,AST,[8],72.3 ± 3.2^b Karmen
same,Creatinine,[8],0.63 ± 0.06 mg/dL
same,Serum protein,[8],67.6 ± 4.1 mg/mL
same,"Side effects on the body (liver and kidney function), in words",[8],no harmful side effects
same,"Water solubility, in words",[9],very high water solubility
same,Precipitate,[9]; pH 2.0,No
same,Precipitate,[9]; pH 7.0,No
